Data published in the NIST ThermoML archive (doi:10.1016/j.tca.2007.04.006).
Numbers after ± are expanded uncertainties.

Assay: molar heat capacity at constant pressure
Conditions: 101.33 kPa, Crystal, Vacuum adiabatic calorimetry

## Nc1ccc([N+](=O)[O-])cn1 [2-amino-5-nitropyridine]
80 K
  molar heat capacity at constant pressure: 52.33 ± 0.23 J/K/mol
80.24 K
  molar heat capacity at constant pressure: 52.77 ± 0.23 J/K/mol
84.16 K
  molar heat capacity at constant pressure: 54.56 ± 0.24 J/K/mol
85 K
  molar heat capacity at constant pressure: 55.34 ± 0.25 J/K/mol
87.02 K
  molar heat capacity at constant pressure: 56.26 ± 0.25 J/K/mol
89.97 K
  molar heat capacity at constant pressure: 58.05 ± 0.26 J/K/mol
90 K
  molar heat capacity at constant pressure: 58.25 ± 0.3 J/K/mol
93.01 K
  molar heat capacity at constant pressure: 60.06 ± 0.3 J/K/mol
95 K
  molar heat capacity at constant pressure: 61.07 ± 0.31 J/K/mol
96.12 K
  molar heat capacity at constant pressure: 61.79 ± 0.31 J/K/mol
99.15 K
  molar heat capacity at constant pressure: 63.52 ± 0.32 J/K/mol
100 K
  molar heat capacity at constant pressure: 63.81 ± 0.32 J/K/mol
102.11 K
  molar heat capacity at constant pressure: 65.16 ± 0.32 J/K/mol
105 K
  molar heat capacity at constant pressure: 66.48 ± 0.33 J/K/mol
105.16 K
  molar heat capacity at constant pressure: 66.83 ± 0.33 J/K/mol
108.3 K
  molar heat capacity at constant pressure: 68.54 ± 0.33 J/K/mol
110 K
  molar heat capacity at constant pressure: 69.08 ± 0.34 J/K/mol
111.38 K
  molar heat capacity at constant pressure: 69.97 ± 0.34 J/K/mol
114.4 K
  molar heat capacity at constant pressure: 71.41 ± 0.34 J/K/mol
115 K
  molar heat capacity at constant pressure: 71.62 ± 0.34 J/K/mol
117.37 K
  molar heat capacity at constant pressure: 72.83 ± 0.35 J/K/mol
120 K
  molar heat capacity at constant pressure: 74.11 ± 0.35 J/K/mol
120.43 K
  molar heat capacity at constant pressure: 74.39 ± 0.35 J/K/mol
123.58 K
  molar heat capacity at constant pressure: 76.05 ± 0.36 J/K/mol
125 K
  molar heat capacity at constant pressure: 76.55 ± 0.36 J/K/mol
126.69 K
  molar heat capacity at constant pressure: 77.4 ± 0.37 J/K/mol
129.75 K
  molar heat capacity at constant pressure: 78.85 ± 0.37 J/K/mol
130 K
  molar heat capacity at constant pressure: 78.95 ± 0.37 J/K/mol
132.77 K
  molar heat capacity at constant pressure: 80.21 ± 0.38 J/K/mol
135 K
  molar heat capacity at constant pressure: 81.31 ± 0.38 J/K/mol
135.75 K
  molar heat capacity at constant pressure: 81.69 ± 0.38 J/K/mol
138.82 K
  molar heat capacity at constant pressure: 82.97 ± 0.39 J/K/mol
140 K
  molar heat capacity at constant pressure: 83.65 ± 0.39 J/K/mol
141.99 K
  molar heat capacity at constant pressure: 84.37 ± 0.39 J/K/mol
145 K
  molar heat capacity at constant pressure: 85.96 ± 0.4 J/K/mol
145.12 K
  molar heat capacity at constant pressure: 85.83 ± 0.4 J/K/mol
148.21 K
  molar heat capacity at constant pressure: 87.22 ± 0.4 J/K/mol
150 K
  molar heat capacity at constant pressure: 88.25 ± 0.41 J/K/mol
151.26 K
  molar heat capacity at constant pressure: 88.71 ± 0.41 J/K/mol
154.29 K
  molar heat capacity at constant pressure: 90.07 ± 0.41 J/K/mol
155 K
  molar heat capacity at constant pressure: 90.53 ± 0.42 J/K/mol
157.29 K
  molar heat capacity at constant pressure: 91.42 ± 0.42 J/K/mol
160 K
  molar heat capacity at constant pressure: 92.79 ± 0.42 J/K/mol
160.26 K
  molar heat capacity at constant pressure: 92.54 ± 0.42 J/K/mol
163.32 K
  molar heat capacity at constant pressure: 93.8 ± 0.43 J/K/mol
165 K
  molar heat capacity at constant pressure: 95.05 ± 0.43 J/K/mol
166.47 K
  molar heat capacity at constant pressure: 95.36 ± 0.43 J/K/mol
169.59 K
  molar heat capacity at constant pressure: 96.53 ± 0.44 J/K/mol
170 K
  molar heat capacity at constant pressure: 97.31 ± 0.44 J/K/mol
172.69 K
  molar heat capacity at constant pressure: 97.56 ± 0.44 J/K/mol
175 K
  molar heat capacity at constant pressure: 99.56 ± 0.45 J/K/mol
175.76 K
  molar heat capacity at constant pressure: 99.17 ± 0.45 J/K/mol
178.81 K
  molar heat capacity at constant pressure: 100.66 ± 0.46 J/K/mol
180 K
  molar heat capacity at constant pressure: 101.83 ± 0.46 J/K/mol
181.83 K
  molar heat capacity at constant pressure: 101.77 ± 0.46 J/K/mol
184.86 K
  molar heat capacity at constant pressure: 103.74 ± 0.47 J/K/mol
185 K
  molar heat capacity at constant pressure: 104.09 ± 0.47 J/K/mol
188 K
  molar heat capacity at constant pressure: 105.44 ± 0.47 J/K/mol
190 K
  molar heat capacity at constant pressure: 106.38 ± 0.48 J/K/mol
191.24 K
  molar heat capacity at constant pressure: 107.04 ± 0.48 J/K/mol
194.48 K
  molar heat capacity at constant pressure: 108.11 ± 0.48 J/K/mol
195 K
  molar heat capacity at constant pressure: 108.67 ± 0.49 J/K/mol
197.71 K
  molar heat capacity at constant pressure: 110.07 ± 0.49 J/K/mol
200 K
  molar heat capacity at constant pressure: 110.98 ± 0.49 J/K/mol
200.95 K
  molar heat capacity at constant pressure: 111.83 ± 0.5 J/K/mol
204.28 K
  molar heat capacity at constant pressure: 113.75 ± 0.51 J/K/mol
205 K
  molar heat capacity at constant pressure: 113.31 ± 0.51 J/K/mol
207.71 K
  molar heat capacity at constant pressure: 115.82 ± 0.51 J/K/mol
210 K
  molar heat capacity at constant pressure: 115.66 ± 0.51 J/K/mol
211.1 K
  molar heat capacity at constant pressure: 117.36 ± 0.52 J/K/mol
214.45 K
  molar heat capacity at constant pressure: 118.48 ± 0.53 J/K/mol
215 K
  molar heat capacity at constant pressure: 118.02 ± 0.52 J/K/mol
217.75 K
  molar heat capacity at constant pressure: 119.73 ± 0.53 J/K/mol
220 K
  molar heat capacity at constant pressure: 120.42 ± 0.53 J/K/mol
220.98 K
  molar heat capacity at constant pressure: 121.46 ± 0.54 J/K/mol
224.24 K
  molar heat capacity at constant pressure: 123.44 ± 0.54 J/K/mol
225 K
  molar heat capacity at constant pressure: 122.83 ± 0.54 J/K/mol
227.37 K
  molar heat capacity at constant pressure: 125.24 ± 0.55 J/K/mol
230 K
  molar heat capacity at constant pressure: 125.27 ± 0.55 J/K/mol
230.47 K
  molar heat capacity at constant pressure: 126.78 ± 0.56 J/K/mol
233.53 K
  molar heat capacity at constant pressure: 128 ± 0.56 J/K/mol
235 K
  molar heat capacity at constant pressure: 127.73 ± 0.56 J/K/mol
236.7 K
  molar heat capacity at constant pressure: 129.18 ± 0.57 J/K/mol
239.83 K
  molar heat capacity at constant pressure: 130.77 ± 0.57 J/K/mol
240 K
  molar heat capacity at constant pressure: 130.22 ± 0.57 J/K/mol
242.82 K
  molar heat capacity at constant pressure: 132.21 ± 0.58 J/K/mol
245 K
  molar heat capacity at constant pressure: 132.74 ± 0.58 J/K/mol
245.9 K
  molar heat capacity at constant pressure: 133.33 ± 0.58 J/K/mol
249 K
  molar heat capacity at constant pressure: 134.92 ± 0.59 J/K/mol
250 K
  molar heat capacity at constant pressure: 135.28 ± 0.59 J/K/mol
252.08 K
  molar heat capacity at constant pressure: 136.09 ± 0.59 J/K/mol
255 K
  molar heat capacity at constant pressure: 137.85 ± 0.6 J/K/mol
255.25 K
  molar heat capacity at constant pressure: 137.55 ± 0.6 J/K/mol
258.39 K
  molar heat capacity at constant pressure: 138.82 ± 0.6 J/K/mol
260 K
  molar heat capacity at constant pressure: 140.44 ± 0.61 J/K/mol
261.52 K
  molar heat capacity at constant pressure: 140.61 ± 0.61 J/K/mol
264.62 K
  molar heat capacity at constant pressure: 142.67 ± 0.62 J/K/mol
265 K
  molar heat capacity at constant pressure: 143.05 ± 0.62 J/K/mol
267.71 K
  molar heat capacity at constant pressure: 144.57 ± 0.63 J/K/mol
270 K
  molar heat capacity at constant pressure: 145.69 ± 0.63 J/K/mol
270.79 K
  molar heat capacity at constant pressure: 146.14 ± 0.63 J/K/mol
273.84 K
  molar heat capacity at constant pressure: 147.16 ± 0.64 J/K/mol
275 K
  molar heat capacity at constant pressure: 148.34 ± 0.64 J/K/mol
276.89 K
  molar heat capacity at constant pressure: 148.4 ± 0.64 J/K/mol
279.92 K
  molar heat capacity at constant pressure: 149.95 ± 0.65 J/K/mol
280 K
  molar heat capacity at constant pressure: 151.02 ± 0.65 J/K/mol
282.94 K
  molar heat capacity at constant pressure: 151.57 ± 0.66 J/K/mol
285 K
  molar heat capacity at constant pressure: 153.71 ± 0.66 J/K/mol
286.05 K
  molar heat capacity at constant pressure: 152.95 ± 0.66 J/K/mol
289.25 K
  molar heat capacity at constant pressure: 154.4 ± 0.67 J/K/mol
290 K
  molar heat capacity at constant pressure: 156.42 ± 0.68 J/K/mol
292.39 K
  molar heat capacity at constant pressure: 157.06 ± 0.68 J/K/mol
295 K
  molar heat capacity at constant pressure: 159.13 ± 0.69 J/K/mol
295.48 K
  molar heat capacity at constant pressure: 158.97 ± 0.69 J/K/mol
298.15 K
  molar heat capacity at constant pressure: 160.85 ± 0.69 J/K/mol
298.56 K
  molar heat capacity at constant pressure: 161.47 ± 0.69 J/K/mol
300 K
  molar heat capacity at constant pressure: 161.86 ± 0.7 J/K/mol
301.64 K
  molar heat capacity at constant pressure: 163.12 ± 0.7 J/K/mol
304.71 K
  molar heat capacity at constant pressure: 164.66 ± 0.71 J/K/mol
305 K
  molar heat capacity at constant pressure: 164.59 ± 0.71 J/K/mol
307.77 K
  molar heat capacity at constant pressure: 165.74 ± 0.71 J/K/mol
310 K
  molar heat capacity at constant pressure: 167.33 ± 0.72 J/K/mol
310.83 K
  molar heat capacity at constant pressure: 167.2 ± 0.72 J/K/mol
313.87 K
  molar heat capacity at constant pressure: 168.75 ± 0.72 J/K/mol
315 K
  molar heat capacity at constant pressure: 170.06 ± 0.73 J/K/mol
316.9 K
  molar heat capacity at constant pressure: 170.43 ± 0.73 J/K/mol
319.93 K
  molar heat capacity at constant pressure: 172.15 ± 0.74 J/K/mol
320 K
  molar heat capacity at constant pressure: 172.79 ± 0.74 J/K/mol
323.02 K
  molar heat capacity at constant pressure: 174.56 ± 0.75 J/K/mol
325 K
  molar heat capacity at constant pressure: 175.51 ± 0.75 J/K/mol
326.19 K
  molar heat capacity at constant pressure: 175.6 ± 0.75 J/K/mol
329.34 K
  molar heat capacity at constant pressure: 177.96 ± 0.76 J/K/mol
330 K
  molar heat capacity at constant pressure: 178.22 ± 0.76 J/K/mol
332.48 K
  molar heat capacity at constant pressure: 180.37 ± 0.77 J/K/mol
335 K
  molar heat capacity at constant pressure: 180.91 ± 0.77 J/K/mol
335.62 K
  molar heat capacity at constant pressure: 182.54 ± 0.78 J/K/mol
338.77 K
  molar heat capacity at constant pressure: 183.77 ± 0.78 J/K/mol
340 K
  molar heat capacity at constant pressure: 183.58 ± 0.78 J/K/mol
341.9 K
  molar heat capacity at constant pressure: 185.05 ± 0.79 J/K/mol
345 K
  molar heat capacity at constant pressure: 186.22 ± 0.79 J/K/mol
345.02 K
  molar heat capacity at constant pressure: 186.91 ± 0.8 J/K/mol
348.14 K
  molar heat capacity at constant pressure: 188.46 ± 0.8 J/K/mol
350 K
  molar heat capacity at constant pressure: 188.82 ± 0.8 J/K/mol
351.24 K
  molar heat capacity at constant pressure: 190.04 ± 0.81 J/K/mol
354.33 K
  molar heat capacity at constant pressure: 191.86 ± 0.82 J/K/mol
355 K
  molar heat capacity at constant pressure: 191.39 ± 0.81 J/K/mol
357.42 K
  molar heat capacity at constant pressure: 193.4 ± 0.82 J/K/mol
360 K
  molar heat capacity at constant pressure: 193.92 ± 0.82 J/K/mol
360.58 K
  molar heat capacity at constant pressure: 194.97 ± 0.83 J/K/mol
363.8 K
  molar heat capacity at constant pressure: 195.55 ± 0.83 J/K/mol
365 K
  molar heat capacity at constant pressure: 196.39 ± 0.83 J/K/mol
367.02 K
  molar heat capacity at constant pressure: 197.03 ± 0.84 J/K/mol
370 K
  molar heat capacity at constant pressure: 198.81 ± 0.84 J/K/mol
370.23 K
  molar heat capacity at constant pressure: 198.93 ± 0.84 J/K/mol
373.42 K
  molar heat capacity at constant pressure: 200.16 ± 0.85 J/K/mol
375 K
  molar heat capacity at constant pressure: 201.16 ± 0.85 J/K/mol
376.61 K
  molar heat capacity at constant pressure: 202.18 ± 0.86 J/K/mol
379.79 K
  molar heat capacity at constant pressure: 203.08 ± 0.86 J/K/mol
380 K
  molar heat capacity at constant pressure: 203.44 ± 0.86 J/K/mol
382.96 K
  molar heat capacity at constant pressure: 204.62 ± 0.87 J/K/mol
385 K
  molar heat capacity at constant pressure: 205.64 ± 0.87 J/K/mol
386.12 K
  molar heat capacity at constant pressure: 205.85 ± 0.87 J/K/mol
389.27 K
  molar heat capacity at constant pressure: 207.34 ± 0.88 J/K/mol
390 K
  molar heat capacity at constant pressure: 207.76 ± 0.88 J/K/mol
392.45 K
  molar heat capacity at constant pressure: 208.4 ± 0.88 J/K/mol
395 K
  molar heat capacity at constant pressure: 209.78 ± 0.89 J/K/mol
395.48 K
  molar heat capacity at constant pressure: 209.36 ± 0.89 J/K/mol
